Values after ≈ are worked out from the molar mass of the structure shown.

For the data set the following is noted: buffer; pH 7.4; 200.0 µM.
The kinetic solubility is the concentration staying in solution when a stock, usually in DMSO, is diluted into the medium. Molecule `C=CCn1c(C)cc(C(=O)Cn2c(C(C)O)nc3ccccc32)c1C` (centres undefined) showed a solubility (kinetic) of 29.4 µg/mL (≈ 87.1 µM).
For `CCn1c(C)nc2cc(S(=O)(=O)Nc3ccc(C)cc3)ccc21` the value was greater than 49.4 µg/mL; for `Nc1ccc(C(=O)Nc2cccc(NC(=O)c3ccc(N)cc3)c2)cc1`, 34.8 µg/mL (≈ 100 µM); for `Nc1ccc(SCc2cccnc2)cc1`, 31 µg/mL (≈ 143 µM).
`N#CCNC(=O)C1c2ccccc2Oc2ccccc21` yielded a kinetic solubility of 4.1 µg/mL (≈ 15.5 µM).
The molecule `Cc1cc(C)nc(SCc2ccc(F)cc2)n1` gave a solubility (kinetic) of 10 µg/mL (≈ 40.3 µM).
Consider `O=C(CN1C(=O)/C(=C2/SC(=S)N(CCS(=O)(=O)O)C2=O)c2ccccc21)Nc1cccc(Br)c1`, for which the solubility (kinetic) is 14.3 µg/mL (≈ 24.6 µM).
As for `CCc1ccc(NC(=O)CSc2ccccn2)cc1`, the kinetic solubility was found to be 33.7 µg/mL (≈ 124 µM).
`CC(C)(C)C(=O)COc1ccccc1[N+](=O)[O-]` showed a solubility (kinetic) greater than 35.6 µg/mL.
Molecule `O=C(Nc1cc(-c2nc3ncccc3o2)ccc1Cl)c1ccco1` yielded a solubility (kinetic) of 4.4 µg/mL (≈ 13 µM).
For `CN(Cc1ccc(F)cc1)Cc1nc(-c2ccccc2)no1` the value was 4.4 µg/mL (≈ 14.8 µM); for `CCC(C)(C)NC(=O)C1CC(=O)N(CCc2ccc(F)cc2)C1` (centres undefined), greater than 48.1 µg/mL.
`CN(C)C(=O)c1coc2nc3ccccc3nc12` registered a solubility (kinetic) of 4 µg/mL (≈ 16.6 µM).
As for `NS(=O)(=O)c1ccc(NC(=O)COC(=O)c2ccc(S(=O)(=O)N3CCOCC3)cc2)cc1`, the solubility (kinetic) was 13 µg/mL (≈ 26.9 µM).
In the case of `Cc1ccc(N2CC(O)Cn3c2nc2c3c(=O)n(C)c(=O)n2C)cc1` (centres undefined), the kinetic solubility is 24.5 µg/mL (≈ 71.8 µM).
In turn, `O=c1c2c([N+](=O)[O-])cc([N+](=O)[O-])cc2sn1Cc1ccccc1` had a kinetic solubility of 17.2 µg/mL (≈ 51.9 µM).
Regarding `Cc1cc(C)c(C)c(OCC(=O)O/N=C(\N)c2ccncc2)c1`, the solubility (kinetic) was 28.5 µg/mL (≈ 91 µM).
In turn, `C=CCN1C(=O)C2(OCCCO2)c2cc(CCCC)ccc21` registered a kinetic solubility of 4.5 µg/mL (≈ 14.9 µM).
For `O=C(Nc1ccc(NC(=O)c2ccccc2F)cc1)c1ccccc1F` the value was less than 0.4 µg/mL; for `COc1ccccc1N(C)S(=O)(=O)c1ccc(C(=O)Nc2cc(F)ccc2C)cc1`, 7.5 µg/mL (≈ 17.5 µM); for `CC1=CSC2=NS(=O)(=O)CCN12`, greater than 30.6 µg/mL.
As to `CC1(C)COC2(OC1)C(=O)Nc1ccccc12`, the solubility (kinetic) is greater than 35 µg/mL.
Take `CCc1ccc(NC(=O)NCc2cccnc2)cc1`: the solubility (kinetic) is greater than 38.3 µg/mL.
As for `CCC(CC)C(=O)c1c[nH]c(C(=O)NCc2ccc(F)cc2)c1`, the solubility (kinetic) came to 1 µg/mL (≈ 3.16 µM).
For `O=C1CCc2cc(S(=O)(=O)Nc3ccccc3)ccc2N1`, the solubility (kinetic) is greater than 45.4 µg/mL.
In turn, `Cc1cnc(NC(=O)Cc2ccc(Br)cc2)s1` had a solubility (kinetic) of less than 0.3 µg/mL.
The molecule `O=C(c1ccccc1)C1CN(Cc2ccccc2)CCC1(O)c1ccccc1` (centres undefined) returned a kinetic solubility of 10.4 µg/mL (≈ 28 µM).
For `CCOC(=O)c1c(/N=C/C2=C(O)CCCC2=O)sc2c1CCCC2` the value was 3.6 µg/mL (≈ 10.4 µM).
Take `CCOc1ccc(NC(=O)c2cc(Cl)nc3ccccc23)cc1`: the kinetic solubility was found to be 0.4 µg/mL (≈ 1.22 µM).
As to `CC(=O)/C(C=Nc1noc(C)c1Br)=C(\C)O`, the solubility (kinetic) is 37.6 µg/mL (≈ 131 µM).
With `CS(=O)(=O)N(CC(=O)Nc1ccc(Br)cc1)C1CCCCC1`, the kinetic solubility was 55.5 µg/mL (≈ 143 µM).
As for `O=C(O)CC1(CC(=O)Nc2ccc3sccc3c2)CCCCC1`, the solubility (kinetic) turned out to be 42.6 µg/mL (≈ 129 µM).
For `CC(=O)N1CCC(C(=O)NCCOc2cccc(C)c2)CC1`, the kinetic solubility was greater than 45.7 µg/mL.
For `Cc1nc2ccccc2c(=O)n1NC(=O)c1c(F)cccc1F`, the solubility (kinetic) is greater than 47.3 µg/mL.
For `CCOc1ccccc1NC(=O)c1oc2ccccc2c1NC(=O)C1CCCO1` (centres undefined), the kinetic solubility is less than 0.4 µg/mL.
For `Cc1ccc2c(C)c(C(=O)N(C)Cc3ccncn3)oc2c1C` the value was 32.7 µg/mL (≈ 106 µM).
The molecule `CCCCOc1ccc(CSCCN)cc1Cl.Cl` displayed a kinetic solubility greater than 46.5 µg/mL.
Molecule `CC1(C)CC(NCc2ccncc2)CC(C)(C)N1` had a kinetic solubility of 32.2 µg/mL (≈ 130 µM).
`NC(=O)c1ccccc1NC(=O)N1CCOCC1` yielded a kinetic solubility of 37.1 µg/mL (≈ 149 µM).
In the case of `c1csc(-c2cn3ccc4ccccc4c3n2)c1`, the kinetic solubility is 10.7 µg/mL (≈ 42.7 µM).
Molecule `CC(C)=CCN1CCN(Cc2cc3ccccc3[nH]2)CC1CCO` (centres undefined) came in with a solubility (kinetic) of 45.8 µg/mL (≈ 140 µM).
Molecule `O=C(COc1ccccc1Cl)NCCNC(=O)c1ccncc1` had a solubility (kinetic) greater than 50.1 µg/mL.
As to `O=C(Nc1ccc(Br)cc1)C1CCCC1`, the solubility (kinetic) turned out to be 7 µg/mL (≈ 26.1 µM).
As to `O=C(c1ccccc1Oc1ccc([N+](=O)[O-])cc1)N1CCOCC1`, the solubility (kinetic) was greater than 49.2 µg/mL.
For `CN(O)/C=N/C(=S)Nc1ccc(Cl)cc1Cl`, the solubility (kinetic) came out at 38.4 µg/mL (≈ 138 µM).
As to `CCOc1c(Cl)cc(CNCc2ccncc2)cc1OC.Cl`, the kinetic solubility turned out to be 46.1 µg/mL.
With `Cc1nc2nc(SCC(=O)c3ccccc3)[nH]c2cc1Br`, the solubility (kinetic) is less than 0.3 µg/mL.
`CCOC(=O)c1cc(NC(=O)c2cccnc2)ccn1` registered a kinetic solubility of 37.1 µg/mL (≈ 137 µM).
In the case of `CCN(CC)C(=O)COc1ccc2c3c(c(=O)oc2c1)CCCC3`, the kinetic solubility turned out to be 48.1 µg/mL (≈ 146 µM).
Consider `COc1ccc(CNc2cc(NCCCO)c([N+](=O)[O-])c3nonc23)cc1`, for which the kinetic solubility stood at 45.7 µg/mL (≈ 122 µM).
On to `CC(C)c1ccccc1OCC(=O)N1CCCN(C)CC1`, for which the kinetic solubility was greater than 43.6 µg/mL.
For the molecule `O=C(CCC1CCCCC1)NC1CCCCC1`, the solubility (kinetic) is 16.6 µg/mL (≈ 69.9 µM).
Take `O=C(/C=C/c1ccc(Cl)cc1)Nc1nccs1`: the kinetic solubility is 1.1 µg/mL (≈ 4.16 µM).
`COc1ccc(OC)c2sc(Cl)nc12` registered a solubility (kinetic) of 18.4 µg/mL (≈ 80.1 µM).
Under `Cc1ccc(SC(C)C(=O)NC2CC2)cc1` (centres undefined) stands greater than 35.3 µg/mL; under `COc1ccc(C(=O)NCCNC(=O)c2ccc(OC)cc2)cc1`, 2.9 µg/mL (≈ 8.83 µM); under `O=C(O)c1cc(=O)n(Cc2ccccc2)c(=O)[nH]1`, greater than 36.9 µg/mL.
The molecule `CC(C)NC(=O)CNc1ccc(C(F)(F)F)cc1[N+](=O)[O-]` registered a solubility (kinetic) of 13.4 µg/mL (≈ 43.9 µM).
For the molecule `O=S1(=O)CCN(Cc2ccccc2C(F)(F)F)CC1`, the kinetic solubility was greater than 44 µg/mL.
`CCOC(=O)c1ccccc1NC(=O)C1CSC2(C)CCC(=O)N12` (centres undefined) showed a kinetic solubility greater than 52.3 µg/mL.
The molecule `Cc1cccc(/N=C/c2ccccn2)n1` displayed a kinetic solubility of 27.5 µg/mL (≈ 139 µM).
As for `Cc1cc(C)nc(NC(=O)Cc2ccc(Cl)cc2)c1`, the kinetic solubility was 8.6 µg/mL (≈ 31.3 µM).
Molecule `COc1cc(CNc2ccc3[nH]c(=O)[nH]c3c2)ccc1OCC(=O)NC(C)(C)C` showed a solubility (kinetic) of 52.3 µg/mL (≈ 131 µM).
For the molecule `CC1CCCN(CC(=O)NC(=O)NC2CCCCC2)C1` (centres undefined), the solubility (kinetic) is greater than 42.2 µg/mL.
Regarding `N#Cc1c(C(F)(F)F)cc(-c2cccs2)nc1N1CCCCC1`, the kinetic solubility is less than 0.2 µg/mL.
In turn, `Cc1ccc(OCC(=O)Nc2ccc(S(=O)(=O)N3CCCC3)cc2)cc1` returned a solubility (kinetic) of 0.5 µg/mL (≈ 1.34 µM).
On to `CNC(=O)c1oc(-c2ccccc2)nc1C`, for which the kinetic solubility was greater than 32.4 µg/mL.
The molecule `O=c1[nH]c2ccc(S(=O)(=O)Nc3ccccc3O)cc2[nH]1` gave a kinetic solubility greater than 45.8 µg/mL.
Molecule `O=C(O)C1CC=CCC1C(=O)Nc1ccc2c(c1)CCC2` (centres undefined) gave a kinetic solubility greater than 42.8 µg/mL.
`Cc1ccc(Cn2c(=O)c3c(ncn3C)n(C)c2=O)cc1` yielded a kinetic solubility greater than 42.6 µg/mL.
For `O=C(CN1C(=O)NC2(CCc3ccccc32)C1=O)c1ccccc1` (centres undefined) the value was 40.1 µg/mL (≈ 125 µM); for `O=C(O)CSc1ccnc2cc(Cl)ccc12`, greater than 38.1 µg/mL.
Regarding `CCOc1ccc(CCNC(=O)c2cc(C)on2)cc1OCC`, the kinetic solubility is greater than 47.8 µg/mL.
For the molecule `Cc1ccc(C(=O)NCCCN2CCOCC2)c(C)c1`, the solubility (kinetic) is greater than 41.5 µg/mL.
As to `Cc1cc(C)c(C(=O)NCC(=O)c2ccccc2)c(C)c1`, the kinetic solubility was 8.8 µg/mL (≈ 31.3 µM).
For the molecule `Cc1cccn2c(=O)c3cc(C(=O)NC4CCCCC4)c(=N)n(CCN4CCOCC4)c3nc12`, the kinetic solubility was found to be 52.2 µg/mL (≈ 112 µM).
Turning to `CCOc1ccc(S(=O)(=O)N2CCN(C(=O)C3CC3C)CC2)cc1` (centres undefined), the solubility (kinetic) amounted to 51.7 µg/mL (≈ 147 µM).
`Nc1nc(NCCCN2CCOCC2)nc(Nc2cccc(F)c2)c1[N+](=O)[O-]` showed a kinetic solubility of 6.3 µg/mL (≈ 16.1 µM).
Molecule `COc1cccc(/C=C2\SC(=S)N(c3cccnc3)C2=O)c1OC` gave a kinetic solubility of less than 0.4 µg/mL.
Molecule `CC1=C([N+](=O)[O-])C(c2ccc(Cl)cc2)NC(=O)N1` (centres undefined) came in with a kinetic solubility greater than 40.2 µg/mL.
In turn, `CCOc1ccc(NC2=CC(=O)CCC2)cc1` showed a solubility (kinetic) of 29.5 µg/mL (≈ 128 µM).
Regarding `Cc1ccc(/C(O)=C/c2nc3cc(C)ccc3oc2=O)cc1`, the solubility (kinetic) was 12 µg/mL (≈ 40.9 µM).
`COc1ccccc1OCCCCN1CCCCC1` had a kinetic solubility of 36.1 µg/mL (≈ 137 µM).
`Cc1noc(C)c1CSCC(=O)Nc1ccc(C#N)c(Cl)c1`: the solubility (kinetic) is greater than 50.4 µg/mL.
`O=C(CCNC(=O)c1ccc(Cl)cc1)Nc1nc2ccccc2[nH]1` showed a solubility (kinetic) of 2.3 µg/mL (≈ 6.71 µM).
For `CSc1ncccc1C(=O)Nc1cc(Cl)ccc1N1CCOCC1` the value was 4.4 µg/mL (≈ 12.1 µM); for `COc1ccc(S(=O)(=O)N2CCN(C)CC2)cn1`, greater than 40.7 µg/mL; for `NC(=O)C1CC(=O)N(c2ccc(OCc3ccc([N+](=O)[O-])cc3)cc2)C1` (centres undefined), 20.4 µg/mL (≈ 57.4 µM).
`O=C(Nc1ccc(OCc2ccccc2Cl)cc1)c1cccnc1` came in with a kinetic solubility of 1.8 µg/mL (≈ 5.31 µM).
For `CCCCC(=O)Nc1cc(Cl)ccc1C(=O)O` the value was greater than 38.4 µg/mL; for `Cc1ccccc1C(=O)NC(CC(C)C)C(=O)NCC(C)(C)N1CCOCC1` (centres undefined), greater than 58.4 µg/mL; for `CC[C@H](C)[C@H](NC(N)=O)C(=O)Nc1ccc(NC(C)=O)cc1`, greater than 46 µg/mL.
Molecule `S=C(NCCc1ccccc1)NCc1cccc(Cl)c1` came in with a kinetic solubility of 13.9 µg/mL (≈ 45.6 µM).
Turning to `COc1cc2c(cc1OC)CN(C(=O)c1sccc1C)CC2`, the kinetic solubility came out at 45.8 µg/mL (≈ 144 µM).
`O=C(CN1CCN(Cc2ccc(F)cc2)CC1)Nc1ccccc1F` registered a solubility (kinetic) greater than 51.8 µg/mL.
`Cc1cccc(NC(=O)C(Cc2ccccc2)n2cccc2)c1` (centres undefined) yielded a solubility (kinetic) of 11.6 µg/mL (≈ 38.1 µM).
Under `CC(=O)N(c1cccc(Cl)c1)c1nc(C)cc(C)c1C#N` stands greater than 45 µg/mL; under `COC(=O)c1cc(Nc2cc(C)c3ccc(O)cc3n2)cc(C(=O)OC)c1`, less than 0.4 µg/mL.
The molecule `Cc1ccc(NC(=O)CCN2C(=O)c3ccccc3C2=O)cc1C` came in with a solubility (kinetic) of 4.6 µg/mL (≈ 14.3 µM).
`FC(F)(F)c1ccc(-n2cnc3ccccc32)nc1` had a kinetic solubility of 13.5 µg/mL (≈ 51.3 µM).
For `COCCOc1ccc(C(F)(F)F)cc1N` the value was 31.9 µg/mL (≈ 136 µM); for `COc1cc(-c2cc(C(=O)Nc3cc(S(=O)(=O)N4CCOCC4)ccc3O)c3ccccc3n2)cc(OC)c1OC`, 3.3 µg/mL (≈ 5.69 µM); for `CCN(Cc1ccccc1)C(=O)Cc1c[nH]c2ccccc12`, 33.9 µg/mL (≈ 116 µM).
For `CC(NC(=O)CCN1C(=O)c2ccccc2C1=O)c1ccccc1` (centres undefined) the value was greater than 48.4 µg/mL.

(Values after PubChem BioAssay AID1996.)
